Results reported in ChEMBL document CHEMBL6103673, “Novel 1,6-Naphthridine Compounds as SMARCA2 Inhibitors for Treating Non-small Cell Lung Cancer” (ACS Med Chem Lett, 2025).

Experiment: Inhibition of SMARCA2/SMARCC1/SMARCC2/SMARCB1 (unknown origin) using ATP/nucleosome mix as substrate preincubated for 30 mins followed by substrate addition and measured after 180 mins by ADP-Glo assay
Parameters: species or system Homo sapiens

SMILES | IC50
Cc1ccc(NC(=O)Cc2cc3cc(-c4cccc(N5C[C@@H](C)O[C@@H](C)C5)n4)ccc3cn2)cc1S(C)(=O)=O | 480 pM
C[C@@H]1CN(c2cccc(-c3ccc4cnc(CC(=O)N[C@@H]5CCN(S(=O)(=O)C(F)F)C5)cc4c3)n2)C[C@H](C)O1 | 530 pM
C[C@@H]1CN(c2cccc(-c3ccc4cnc(CC(=O)N[C@@H]5C[C@@H](F)CN(S(=O)(=O)C(F)F)C5)cc4n3)n2)C[C@H](C)O1 | 500 pM

Now those with a lower IC50, led by results:

IC50 | SMILES
450 pM | C[C@@H]1CN(c2cccc(-c3ccc4cnc(CC(=O)Nc5cccc(S(=O)(=O)C(F)F)c5)cc4n3)n2)C[C@H](C)O1
430 pM | C[C@@H]1CN(c2cccc(-c3ccc4cnc(CC(=O)N[C@@H]5CN(S(=O)(=O)C(F)F)CC(F)(F)C5)cc4n3)n2)C[C@H](C)O1
330 pM | C[C@@H]1CN(c2cccc(-c3ccc4cnc(CC(=O)N[C@@H]5C[C@H](C)N(S(=O)(=O)C(F)F)C5)cc4c3)n2)C[C@H](C)O1
